Data reported in patent US6664086B2, “cDNA, genomic, and predicted protein sequences of learning-induced kinases” (priority 1998, dated 2003).
Entries after “also recorded” stand apart in the source; their conditions may differ. Starred links: 1 amine or outer side, 2 acyl side, 3 side chain; linkers in the order of their positions; H or OH if unused. Positions of bridges follow the written chain, without caps; N, C: chain ends. Non-standard residues stand in square brackets, D forms with d. Residues, ends and D or L forms follow the SMILES beside them. Chains are numbered I, II in the order given. Actinocin(9to1) = Cc1c2oc3c(C)ccc(C(=O)[*:1])c3nc-2c(C(=O)[*:2])c(N)c1=O; NMeV = CN[C@H](C(=O)O)C(C)C; Sar = CNCC(=O)O

How the values were obtained:
[1] = test system: eyeblink/nictitating membrane conditioned responses (CRs); infusion into dorsal anterior IN; experiment: Eyeblink conditioning after drug infusion into the interpositus nucleus (IN); type: in vivo, New Zealand White male rabbits (Oryctolagus cuniculus)
Method: Rabbits underwent eyeblink training 30 min. after infusion of 1 ng of actinomycin D (ActD) or artificial cerebrospinal fluid (ACSF) into the dorsal anterior IN ipsilateral to the trained eye. Rabbits were trained with 10 paired tone-air trials per day to insure that ActD could act during learning (see Methods). […] Most animals in the experimental group reached criterion after 5 days of additional training without drug infusion.
New Zealand White male rabbits (Oryctolagus cuniculus), weighing between 2 and 3 kg were individually housed at the University of Southern California Hedco Neuroscience Building vivariunm with a 12-hr light and dark cycle. The experiment was conducted during the light phase of the cycle. Rabbits had ad lib access to food and water.
(§1) Stainless steel guide cannulas (25 ga) were implanted in the head of the animals with the tip fixed at 1.5 to 2.0 mm dorsal to the IN ipsilateral to the eye to be trained (left) (stereotaxic coordinates from lambda: 0.8 mm anterior, 5.2 mm lateral, and 14.0 mm ventral). Each guide cannula was filled with an inner stainless steel stylet designed to keep the guide cannula patent. Animals were given 5 days to recover from surgery. At infusion the stylet was removed and an inner cannula (31 ga) was inserted to the target locus. Delivery of fluids through the inner cannula was accomplished by a 10 μl Hamilton syringe driven by a syringe pump. Fluids were delivered to the target area at a rate of 0.38 μl per min for 2.6 min. For the experimental group, 1 ng of ActD (in 1 μl of vehicle) was infused daily 30 min prior to the start of each training session for 5 days (n=7). […] The animals were given 2 days rest and then trained for 5 more days without drug infusion. At training day 11, the experimental group was treated with 1 μg muscimol which is known to reversibly inactivate the IN (Krupa and Thompson, 1997). For the control group, 1 μl of ACSF (vehicle) was infused into the IN for 5 days (n=5). At day 6, control animals were infused with 1 ng of ActD 30 min prior to training. On training day 7, 1 μg of muscimol was infused.
For the infusion experiments, all animals were subjected to eye-blink conditioning under the delay paradigm. The rabbits were allowed one day (1 hour) of habituation to the restrainer and the behavioral recording chamber. On the following day, paired tone-airpuff training began. For each day, the training session began 30 min post drug infusion and we gave only 10 trials/day (instead of the standard 100 trials per day, see below) in order to maximize the possibility that ActD was acting on the learning process before the long term memory had been well established. The tone CS was a 350 ms, 1000 Hz., 85 dB tone and the airpuff US was a 100 ms puff of air (3 psi at the source) delivered to the rabbit's cornea, the CS and US coterminating. The mean intertrial interval (ITI) was 60±10 sec. Nictitating membrane (NNI) conditioned responses (CRs) were measured using a minitorque potentiometer attached to a small loop of monofilament nylon thread on the NM of the rabbit's left, eye. Output of the potentiometer was digitized and recorded by computer. A conditioned response was defined as any NM extension response greater than 0.5 mm that occurred after tone onset but before airpuff onset. The intra- and intertrial timing, stimulus presentations, data collection and analysis were performed by a PC with a program written in Forth and machine language (Lavond and Steinmetz, 1989b).

eyeblink conditioning = conditions: infusion into the IN, rabbit (Bracha and Bloedel, 1996); cited from earlier work
IN tissue = experiment: Pilot dose studies of ActD infusion into the IN (tissue damage); type: in vivo, New Zealand White male rabbits (Oryctolagus cuniculus); conditions: e.g. 5 ng, infused into IN
From the text: as §1, with “For the experimental group, 1 ng of ActD (in 1 μl of vehicle) was infused daily 30 min prior to the start of each training session for 5 days (n=7).” left out

Compound: NCc1cc(=O)[nH]o1 [muscimol]
- Expression of CRs, experimental group day 11 ([1]; 1 μg infused into IN at day 11, experimental group after retraining): completely abolished the expression of CRs
- Expression of CRs, control group day 7 ([1]; 1 μg infused into IN on day 7, conditioned control animals): completely abolished the CRs

Compound: COc1ccc(C[C@H]2NC[C@H](O)[C@H]2OC(C)=O)cc1 [anisomycin]
- Effect on eyeblink conditioning (eyeblink conditioning): interfered with conditioning

Compound: Cc1c2oc3c(C)ccc(C(=O)N[C@@H]4C(=O)N[C@H](C(C)C)C(=O)N5CCC[C@H]5C(=O)N(C)CC(=O)N(C)[C@@H](C(C)C)C(=O)O[C@@H]4C)c3nc-2c(C(=O)N[C@@H]2C(=O)N[C@H](C(C)C)C(=O)N3CCC[C@H]3C(=O)N(C)CC(=O)N(C)[C@@H](C(C)C)C(=O)O[C@@H]2C)c(N)c1=O [ActD, actinomycin D] (I: T[dV]P[Sar][NMeV] / II: T[dV]P[Sar][NMeV]; ester I:1-I:C, II:1-II:C; linker I:N-II:N via Actinocin(9to1))
- Tissue damage at higher doses (IN tissue): caused permanent damage to the tissue
- Acquisition of conditioned responses (CRs) during 5 days of training ([1]; 1 ng infused into IN daily 30 min before training, 5 days, 10 paired CS-US trials per day, n=7, vs ACSF): low levels of CRs; also recorded: completely prevents learning; also recorded: inhibited eyeblink conditioning
- Expression of already acquired CRs ([1]; 1 ng infused into IN on day 6 in control animals conditioned under ACSF (n=5)): did not prevent expression of acquired CRs; also recorded: no effect on the performance of CRs
- CRs on training without drug after ActD treatment (reversibility) ([1]; experimental group, 2 days rest, then training days 6-10 without drug infusion): gradual increase of CRs
